Measurements published in patent publication US10577618B2, “Class of glyphosate resistance genes” (Dow AgroSciences LLC, priority 2012, dated 2020).

How the values were obtained:
T0 corn plants = experiment: Post-emergence glyphosate tolerance of T0 dgt-28 corn (Table 19); format: in vivo, Zea mays
Method: Zea mays dgt-28 transformation events (T0) were allowed to acclimate in the greenhouse and were grown until plants had transitioned from tissue culture to greenhouse growing conditions (i.e., 2-4 new, normal looking leaves had emerged from the whorl). Plants were grown at 27° C. under 16 hour light:8 hour dark conditions in the greenhouse. The plants were then treated with commercial formulations of DURANGO DMA™ (containing the herbicide glyphosate) with the addition of 2% w/v ammonium-sulfate. Herbicide applications were made with a track sprayer at a spray volume of 187 L/ha, 50-cm spray height. T0 plants were sprayed with a range of glyphosate from 280-4480 g ae/ha glyphosate, which is capable of significant injury to untransformed corn lines. A lethal dose is defined as the rate that causes >95% injury to the B104 inbred.
T0 events of dgt-28 linked with TraP4, TraP5, TraP8 and TraP23 were generated by Agrobacterium transformation and were allowed to acclimate under controlled growth chamber conditions until 2-4 new, normal looking leaves had emerged from the whorl. Plants were assigned individual identification numbers and sampled for copy number analyses of both dgt-28 and aad-1. Based on copy number analyses, plants were selected for protein expression analyses. […]

T1 wheat = experiment: Detailed phenotypic screen of T1 wheat events at different glyphosate dose rates (Tables 41, 42); format: in vivo, Triticum aestivum; settings: untransformed donor wheat plants
Method: Four replicates of 12 T1 seeds per selected event and eight replicates (12 seeds each) of the untransformed donor wheat line Bobwhite MPB26RH were sown in 85 mm pots and grown to the 2-leaf stage under well-watered conditions at 25° C. with supplementary lighting providing a 12 hour photoperiod. The pots were placed in a randomised design to allow environmental effects to be removed during data analysis. At the 2-leaf stage, plant length and number of leaves was recorded for each plant before spraying with glyphosate. The first, second, third and fourth replicate of T1 plants for each selected event and the untransformed donor wheat line were sprayed at a dose rate of 420, 840, 1680 and 3360 g ai/ha, respectively. The fifth, sixth, seventh and eighth replicate of untransformed donor wheat line (total 48 plants) were not sprayed. At 7, 14 and 21 days after spraying, the plants were scored for plant length, number of leaves and phenotypic response to glyphosate using the scoring scale in Table 37. Any morphological abnormalities were also recorded. For scoring, the scorer was “blinded” with regard to plant genotype and spray dose rate to prevent scoring bias. Plants with delayed germination and poor establishment (criteria: plant length <6 cm) at the pre-spray scoring were excluded from subsequent analyses.
This differentiation was maximal at 21 days and was observed across all glyphosate dose rates. Table 41. To assess the tolerance of the transgenic events to glyphosate at each spray dose rate, null T1 plants (i.e. plants not carrying the transgene) were excluded from subsequent analyses. T1 plants with a response score of less than three at 21 days after spraying were considered to have the null genotype. […]

[1] = Replicate 1, 420 g ai/ha, 10 plants at pre-spray scoring
[2] = Replicate 2, 840 g ai/ha, 10 plants at pre-spray scoring
[3] = Replicate 3, 1680 g ai/ha, 11 plants at pre-spray scoring
[4] = Replicate 4, 3360 g ai/ha, 10 plants at pre-spray scoring

O=C(O)CNCP(=O)(O)O [glyphosate, N-(phosphonomethyl) glycine]
non-transformed plants controlled with glyphosate at concentrations as low as (T0 corn plants): ≥ 280 g ae/ha | No. surviving plants at 14 days after spraying (T1 wheat; [1]): 0 | No. surviving plants at 21 days after spraying (T1 wheat; [1]): 0 | No. surviving plants at 14 days after spraying (T1 wheat; [2]): 3 | No. surviving plants at 21 days after spraying (T1 wheat; [2]): 0 | No. surviving plants at 14 days after spraying (T1 wheat; [3]): 0 | No. surviving plants at 21 days after spraying (T1 wheat; [3]): 0 | No. surviving plants at 14 days after spraying (T1 wheat; [4]): 1 | No. surviving plants at 21 days after spraying (T1 wheat; [4]): 0
